Where “and” joins values, the source holds several entries; their conditions need not be identical. Equal entries are not always repeated. Entries after “also recorded” stand apart in the source; their conditions may differ. Where two headings read alike, the source gives them in different places.
How the values were obtained:
[1] = DMPK of D88 in mice (plasma); format: in vivo, mouse; conditions: for half-life: read-out: half-life (T ½) (converted)
Procedure: Experiments were conducted by Aptuit (Verona) S.rl, an Evotec Company in Italy. Six weeks old male CD-1 mice were obtained from Charles River Laboratories, Italy. Mice were maintained on a 12 h light cycle with ad libitum access to rodent feed and water.
Healthy animals received IV 1.0 mg kg^−1 or SC administration of the 10.2 mg kg^−1 in homogeneous suspension in 0.5 % HPMC in water at the volume of 1.7 mL kg^−1. Following administration, blood samples were collected under deep isoflurane anesthesia from the cava vein of each mouse into tubes with K3EDTA, thoroughly but gently mixed, and placed on wet ice. Within 0.5 h of collection, blood was centrifuged (2500 g for 10 min at 4 °C) and within 0.5 h, aliquots of plasma were transferred into appropriately labeled sample tubes. A first 20 µL aliquot were mixed with 80 µL of Hepes 0.1 N. A second 5 µL aliquot of plasma was added to a well plate for urea quantification without dilution. Plasma samples were processed using a method based on protein precipitation with acetonitrile followed by HPLC/MS-MS analysis with an optimized analytical method.

A549 cells = test: MTT cytotoxicity, A549; format: cell-based, human; conditions: for Cell viability (MTT) relative to Vehicle: A549, replicates
Procedure: For the determination of cytotoxicity, cell viability was determined using the MTT (3-[4, 5-dimethyl-2-thiazolyl]−2, 5-diphenyl-2H-tetrazolium bromide) assay in the presence and absence of compound (D88). […] The cells were then treated with either vehicle or different concentrations of D88 (10, 20, 30, 40, and 50 µM) for 24 h at 37 °C and 5% CO2. After 24 h, the cells were washed three times with PBS and were incubated in 200 μL PBS containing 200 μg mL^−1 MTT (Sigma-Aldrich) in a 96-well culture plate for 2 h at 37 °C and 5% CO2. Following incubation, the supernatant was discarded, and the cells were lysed in 95% isopropanol and 5% formic acid.

[2] = male, CD-1, mouse, 1 mg/kg IV, plasma
[3] = male, CD-1, mouse, 10 mg/kg SC, plasma

N#Cc1ccc(NC(=O)C(F)C(=O)Nc2ccc(Oc3ccccc3)cc2)cc1 (stereo not shown) [D88]
Clast ([1]; 1 mg/kg IV, plasma): 14.2 ng/mL
Clast ([1]; 10 mg/kg SC, plasma): 66.6 ng/mL
Concentration ([1]; IV Injection 1mg/kg, Time 0.08 h, individual animals, 1 mg/kg): 648 ng/mL and 1150 ng/mL and 1460 ng/mL
Concentration ([1]; IV Injection 1mg/kg, Time 0.33 h, individual animals, 1 mg/kg): 210 ng/mL and 298 ng/mL and 486 ng/mL
Concentration ([1]; IV Injection 1mg/kg, Time 0.67 h, individual animals, 1 mg/kg): 77.1 ng/mL and 131 ng/mL
Concentration ([1]; IV Injection 1mg/kg, Time 1 h, individual animals, 1 mg/kg): 10.9 ng/mL and 25.8 ng/mL and 57.4 ng/mL
Concentration ([1]; SC Injection 10mg/kg, Time 0.08 h, individual animals, 10 mg/kg): 491 ng/mL and 600 ng/mL and 954 ng/mL and 1250 ng/mL
Concentration ([1]; SC Injection 10mg/kg, Time 0.33 h, individual animals, 10 mg/kg): 712 ng/mL and 1020 ng/mL and 1060 ng/mL and 1590 ng/mL
Concentration ([1]; SC Injection 10mg/kg, Time 0.67 h, individual animals, 10 mg/kg): 581 ng/mL and 875 ng/mL and 940 ng/mL and 1190 ng/mL
Concentration ([1]; SC Injection 10mg/kg, Time 1 h, individual animals, 10 mg/kg): 513 ng/mL and 854 ng/mL and 838 ng/mL and 1070 ng/mL
Concentration ([1]; SC Injection 10mg/kg, Time 2 h, individual animals, 10 mg/kg): 746 ng/mL and 683 ng/mL and 744 ng/mL
Concentration ([1]; SC Injection 10mg/kg, Time 3.8 h, individual animals, 10 mg/kg): 90.5 ng/mL and 323 ng/mL and 480 ng/mL and 304 ng/mL
Concentration ([1]; SC Injection 10mg/kg, Time 6 h, individual animals, 10 mg/kg): 21.9 ng/mL and 63.8 ng/mL and 101 ng/mL and 79.7 ng/mL
concentration at 0.67 h ([1]; male, CD-1, mouse, plasma, iv, 1 mg/kg, IV Injection 1mg/kg, Time 0.67 h, individual animals): 76.4 ng/mL
concentration at 2 h ([1]; male, CD-1, mouse, plasma, iv, 1 mg/kg, IV Injection 1mg/kg, Time 2 h, individual animals): 5.9 ng/mL
concentration at 2 h ([1]; male, CD-1, mouse, plasma, sc, 10 mg/kg, SC Injection 10mg/kg, Time 2 h, individual animals): 443 ng/mL
Cmax [1, 2]: 1090 ng/mL
Tmax [1, 2]: 4.8 min
half-life [1, 2]: 16.2 min
Cmax [1, 3]: 1100 ng/mL
Tmax [1, 3]: 19.8 min
half-life [1, 3]: 75 min
cell viability (A549 cells; A549, 10-50 µM, 24 h): None of the used compound concentrations exerted any cytotoxic effect; also recorded: no significant changes in cell viability
Cell viability (MTT) relative to Vehicle (A549 cells; 10 μM): 104.92 and 112.79 and 105.24 and 97.24 and 88.17
Cell viability (MTT) relative to Vehicle (A549 cells; 20 μM): 104.85 and 98.03 and 95.15 and 98.27 and 93.91
Cell viability (MTT) relative to Vehicle (A549 cells; 30 μM): 88.06 and 91.37 and 110.19 and 88.29 and 118.10
Cell viability (MTT) relative to Vehicle (A549 cells; 40 μM): 104.24 and 86.59 and 104.97 and 101.16 and 96.70
Cell viability (MTT) relative to Vehicle (A549 cells; 50 μM): 95.15 and 105.16 and 99.77 and 98.12

Source: publication PMC9428149, “Tackling recalcitrant Pseudomonas aeruginosa infections in critical illness via anti-virulence monotherapy” (Nature Communications, 2022)
